How the values were obtained:
mice = experiment: number of deaths of mice treated with acetaminophen and GSPE; type: in vivo; conditions: without pre-exposure to GSPE
Procedure: (§1) Trials of the efficacy of GSPE in preventing acetaminophen toxicity were performed using mice as test subjects. The GSPE used in the subject trials is a standardized water-ethanol extract from red grape seeds, identified as IH636 by InterHealth Nutraceuticals, Inc., of Concord, Calif. The dosage used in the subject trials was 100 mg of GSPE per kg of body weight, daily for three or seven days. This dosage is equivalent to about […] of body weight, based on the following formula from the CRC Handbook of Toxicology, Delanko M. J. and Hollinger M. A. eds., CRC Press 1995, p. 654:
(§2) GSPE was dissolved in phosphate-buffered saline solution and the solution was administered orally. Acetaminophen then was administered intraperitoneally, as a single toxic dose, in dosage of either 400 or 500 mg/kg. These dosage levels are equivalent to approximately 10 grams for normal healthy adults and 4 to 6 grams for alcoholics, levels that have been found toxic for humans. Twenty-four hours after administration of the acetaminophen, blood samples were removed from the subjects and analyzed for serum alanine aminotransferase activity, a well-known biomarker of liver toxicity. Liver samples also were taken and analyzed them for apoptotic and necrotic cell death DNA damage and gene expression.

[1] = tested on: serum alanine aminotransferase activity; experiment: serum alanine aminotransferase (ALT) activity in acetaminophen-treated mice; type: in vivo; conditions: no pre-exposure to GSPE, 24 h
Procedure: as §1, §2

humans = conditions: normal healthy adults; cited from earlier work
liver tissue = experiment: DNA fragmentation assay of liver tissue from acetaminophen-treated mice; type: in vivo; conditions: without pre-exposure to GSPE
Procedure: as §1, §2

liver sections = liver sections at 400× magnification (histology); type: in vivo, mice; conditions: acetaminophen 500 mg/kg without GSPE pre-treatment; FIG. 11
Procedure: as §1
FIGS. 9 through 12 show comparison liver sections from test subjects at 400× magnification. FIGS. 9 and 10 show normal liver sections from test subjects not given acetaminophen.

CC(=O)Nc1ccc(O)cc1 [acetaminophen, N-acetyl-p-amino phenol]
number of deaths (mice; acetaminophen 400 mg/kg): 2
number of deaths (mice; acetaminophen 500 mg/kg): 4
serum ALT ([1]; acetaminophen 400 mg/kg i.p.): about 22,000 U/L
serum ALT ([1]; acetaminophen 500 mg/kg i.p.): about 30,000 U/L
dosage level found toxic for humans (humans): approximately 10 grams
DNA fragmentation (liver tissue; acetaminophen 400 mg/kg): about 3.5 times that of the control group
DNA fragmentation (liver tissue; acetaminophen 500 mg/kg): about 4.8 times that of the control group
liver section appearance indicating toxicity (liver sections): whitening and browning of cells, indicating toxicity
